Laboratory results reported in patent US6582940B1, “Method for producing calcium pantothenate” (Daiichi Fine Chemical Co., Ltd., priority 1998, dated 2003).

Assay: hygroscopicity analysis (desiccator, relative humidity 82%, 40° C., 24 hours)
Type: physicochemical
Details: for amount of absorbed moisture: 1 g sample, relative humidity 82% (saturated aqueous potassium chloride), after 24 hours; for deliquescence in the hygroscopicity analysis: relative humidity 82%, 24 hours, macroscopic observation
Procedure: The term “nondeliquescent” used in the specification means that a substance is nonhygroscopic (in general, an amount of absorbed moisture is 5% or less at 40° C. under 82% of relative humidity after 24 hours), or not suffered from deliquescence by moisture absorption. More specifically, the term means that no deliquescence is macroscopically observed in a part or whole surface of a solid calcium pantothenate at 40° C. under 82% of the relative humidity within 24 hours. The calcium pantothenate of the present invention comprising an amount of a crystalline component sufficient to prevent deliquescence is an example of the nondeliquescent and crystalline calcium pantothenate.
This product was further dried by using a normal-pressure warm-air dryer at 80° C. for 30 minutes and milled in a mortar, and then sized through a filter No.83 and subjected to a hygroscopicity analysis. The sample (1 g) was placed in a desiccator adjusted to relative humidity of 82% with a saturated aqueous solution of potassium chloride at 40° C., and an amount of absorbed moisture after 24 hours was determined. […] An amorphous was dried in the same manner and the amount of absorbed moisture was determined under the same conditions. […] Moreover, the powder X-ray diffraction analysis of the aforementioned product gave the characteristic peak indicated by the arrow, which verified that the product was a crystalline substance containing the monohydrate (FIG. 1).

| Substance | amount of absorbed moisture | deliquescence in the hygroscopicity analysis |
| --- | --- | --- |
| monocalcium bis[(R)-N-(2,4-dihydroxy-3,3-dimethylbutyryl)-β-alaninate] [amorphous calcium pantothenate, reference compound] | 7.0% | macroscopically apparent deliquescence of the surface was observed |
| calcium pantothenate [Example 2] | 0.7% | no deliquescence was observed |
| calcium pantothenate [Example 3] | 0.8% | no deliquescence was observed |
